Test results published in the NIST ThermoML archive (doi:10.1021/je700266n).

What was measured:
[1] = 101 kPa, Liquid
[2] = xn = mol fraction of the nth substance listed; settings: 101 kPa, Liquid

CCCCn1cc[n+](C)c1.F[P-](F)(F)(F)(F)F [1-butyl-3-methylimidazolium hexafluorophosphate]
[1]
Settings | mass density [kg/m3]
293.15 K | 1371.57
298.15 K | 1367.22
303.15 K | 1362.86
308.15 K | 1358.56
313.15 K | 1354.3
323.15 K | 1345.98
333.15 K | 1337.7
343.15 K | 1330.76

CCCCn1cc[n+](C)c1.F[B-](F)(F)F [1-butyl-3-methylimidazolium tetrafluoroborate]
[1]
Settings | mass density [kg/m3]
293.15 K | 1195.71
298.15 K | 1192.07
303.15 K | 1188.37
308.15 K | 1184.72
313.15 K | 1181.43
323.15 K | 1174.49
333.15 K | 1166.89
343.15 K | 1159.97

CCCCn1cc[n+](C)c1.F[B-](F)(F)F [1-butyl-3-methylimidazolium tetrafluoroborate] + c1ccccc1
mass density [kg/m3], [2]
Settings | 293.15 K | 298.15 K | 303.15 K | 308.15 K | 313.15 K | 323.15 K | 333.15 K | 343.15 K
x1 = 0.4871 | 1105.2 | 1101.28 | 1097.21 | 1093.23 | 1089.58 | 1081.9 | 1073.73 | 1065.72
x1 = 0.5499 | 1120.99 | 1117.14 | 1113.2 | 1109.3 | 1105.72 | 1098.23 | 1090.17 | 1082.51
x1 = 0.5999 | 1132.31 | 1128.5 | 1124.57 | 1120.71 | 1117.22 | 1109.81 | 1101.75 | 1094.35
x1 = 0.7001 | 1151.84 | 1148.13 | 1144.26 | 1140.47 | 1137.04 | 1129.83 | 1121.95 | 1114.7
x1 = 0.8 | 1168.73 | 1165.02 | 1161.24 | 1157.48 | 1154.13 | 1147.03 | 1139.28 | 1132.17
x1 = 0.899 | 1182.8 | 1179.15 | 1175.38 | 1171.67 | 1168.35 | 1161.36 | 1153.64 | 1146.64
x1 = 0.9498 | 1189.44 | 1185.85 | 1182.12 | 1178.45 | 1175.16 | 1168.19 | 1160.54 | 1153.58
x1 = 1 | 1195.71 | 1192.07 | 1188.37 | 1184.72 | 1181.43 | 1174.49 | 1166.89 | 1159.97

CC#N [acetonitrile]
[1]
Settings | mass density [kg/m3]
293.15 K | 782.3
298.15 K | 776.93
303.15 K | 771.44
308.15 K | 765.97
313.15 K | 760.68
323.15 K | 749.73
333.15 K | 738.19
343.15 K | 726.94

CC#N [acetonitrile] + CCCCn1cc[n+](C)c1.F[B-](F)(F)F
[2], x2 = 0
Settings | mass density [kg/m3]
293.15 K | 782.3
298.15 K | 776.93
303.15 K | 771.44
308.15 K | 765.97
313.15 K | 760.68
323.15 K | 749.73
333.15 K | 738.19
343.15 K | 726.94

CC#N [acetonitrile] + CCCCn1cc[n+](C)c1.F[P-](F)(F)(F)(F)F
[2], x2 = 0
Settings | mass density [kg/m3]
293.15 K | 782.3
298.15 K | 776.93
303.15 K | 771.44
308.15 K | 765.97
313.15 K | 760.68
323.15 K | 749.73
333.15 K | 738.19
343.15 K | 726.94

c1ccccc1 [benzene]
[1]
Settings | mass density [kg/m3]
293.15 K | 878.23
298.15 K | 873.11
303.15 K | 867.59
308.15 K | 862.21
313.15 K | 856.82
323.15 K | 846.05
333.15 K | 835.76
343.15 K | 824.89

c1ccccc1 [benzene] + CCCCn1cc[n+](C)c1.F[B-](F)(F)F
[2], x2 = 0
Settings | mass density [kg/m3]
293.15 K | 878.23
298.15 K | 873.11
303.15 K | 867.59
308.15 K | 862.21
313.15 K | 856.82
323.15 K | 846.05
333.15 K | 835.76
343.15 K | 824.89

c1ccccc1 [benzene] + CCCCn1cc[n+](C)c1.F[P-](F)(F)(F)(F)F
[2], x2 = 0
Settings | mass density [kg/m3]
293.15 K | 878.23
298.15 K | 873.11
303.15 K | 867.59
308.15 K | 862.21
313.15 K | 856.82
323.15 K | 846.05
333.15 K | 835.76
343.15 K | 824.89

CCCO [propan-1-ol]
[1]
Settings | mass density [kg/m3]
293.15 K | 804.97
298.15 K | 801.01
303.15 K | 796.89
308.15 K | 792.83
313.15 K | 789.07
323.15 K | 780.74
333.15 K | 771.75
343.15 K | 762.86

CCCO [propan-1-ol] + CCCCn1cc[n+](C)c1.F[B-](F)(F)F
[2], x2 = 0
Settings | mass density [kg/m3]
293.15 K | 804.97
298.15 K | 801.01
303.15 K | 796.89
308.15 K | 792.83
313.15 K | 789.07
323.15 K | 780.74
333.15 K | 771.75
343.15 K | 762.86
